Measurements from patent US9180122B2, “5- or 6-substituted 3-hydroxy-2 (1 H)-pyridinones as D-amino acid oxidase (DAAO) inhibitors in therapy of diseases such as schizophrenia, cognitive disorder and pain” (Takeda Pharmaceutical Company Limited, priority 2011, dated 2015).

The molecules below were run against Human DAAO enzyme (Homo sapiens (Human), UniProt P14920) (assay: In Vitro DAAO Enzyme Assay (Amplex Red detection of H2O2 from D-Serine)). Conditions: 10 mM D-Serine, 60 minutes at 25° C.
Assay type: biochemical
Experimental: The functional activity of compounds inhibiting the DAAO enzyme was determined by utilizing the co-product of the catalysis of D-Serine, H2O2 which can be quantitatively measured using the Amplex Red (Invitrogen) detection. Amplex® Red reagent is a colorless substrate that reacts with hydrogen peroxide (H2O2) with a 1:1 stoichiometry in the presence of […] to produce highly fluorescent resorufin (excitation/emission maxima=570/585 nm). The changes in fluorescence were monitored by a fluorescence plate reader, Envision (Perkin Elmer) and increases in DAAO activity were readily detected upon addition of D-Serine and suppression of this response observed with the application of test compounds.
The Km of D-Serine was measured for each enzyme batch to maintain consistency; this Km was used in subsequent assays.
On the day of the assay compounds were serially diluted in DMSO before being diluted 1:20 with assay buffer (20 mM Tris ph 7.4). A 5 μl portion of assay buffer was added to the wells of a 384 clear base black walled plate (Corning), 5 μl of diluted compound was then added via automated plate to plate transfer using the Bravo liquid handler (Agilent technologies) followed by 5 μl of human DAAO enzyme and then 5 μl D-Serine 50 mM was added to all but the negative control wells (final concentration of 10 mM). Finally 5 μl Amplex red reagent (Invitrogen) was added to all wells as per manufacturer's protocol. The plate was incubated for 60 minutes in the dark at 25° C. and the fluorescence in each well was measured in the Envision plate reader.
The IC50 values for compounds were determined from ten point half log scale dose-response studies and represent the concentration of compound required to […] 50% inhibition of DAAO activity in the presence of 10 mM D-Serine. Concentration response curves were generated using the average of duplicate wells for each data point and analyzed using nonlinear regression and four parameter curve fit.

Sequence of Human DAAO enzyme (P14920 whole entry): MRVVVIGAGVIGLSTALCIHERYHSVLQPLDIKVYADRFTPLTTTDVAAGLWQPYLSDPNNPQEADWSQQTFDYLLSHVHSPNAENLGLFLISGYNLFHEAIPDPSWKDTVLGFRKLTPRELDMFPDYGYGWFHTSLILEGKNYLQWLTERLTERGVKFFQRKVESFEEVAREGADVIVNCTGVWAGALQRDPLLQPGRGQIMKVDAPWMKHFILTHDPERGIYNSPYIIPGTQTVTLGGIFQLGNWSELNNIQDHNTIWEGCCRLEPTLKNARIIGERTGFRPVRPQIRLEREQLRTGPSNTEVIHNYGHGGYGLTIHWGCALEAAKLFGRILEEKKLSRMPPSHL

Row | Compound | IC50
1 | O=c1[nH]cc(CCc2ccc(F)cc2)cc1O [Example 30, 5-[2-(4-Fluorophenyl)ethyl]-3-hydroxypyridin-2(1H)-one] | 61 nM
2 | O=c1[nH]cc(S(=O)(=O)Cc2ccccc2)cc1O [Example 33, 5-(Benzylsulfonyl)-3-hydroxypyridin-2(1H)-one] | 490 nM
3 | Cc1cccc(CCc2c[nH]c(=O)c(O)c2)c1 [Example 28, 3-Hydroxy-5-[2-(3-methylphenyl)ethyl]pyridin-2(1H)-one] | 260 nM
4 | O=c1[nH]cc(SCc2ccc(C(F)(F)F)nc2)cc1O [Example 13, 3-Hydroxy-5-({[6-(trifluoromethyl)pyridin-3-yl]methyl}-sulfanyl)pyridin-2(1H)-one] | 160 nM
5 | O=c1[nH]cc(SCc2cccc(C(F)(F)F)c2)cc1O [Example 8, 3-Hydroxy-5-{[3-(trifluoromethyl)benzyl]sulfanyl}pyridin-2(1H)-one] | 190 nM
6 | Cc1ccc(CCc2c[nH]c(=O)c(O)c2)cc1 [Example 29, 3-Hydroxy-5-[2-(4-methylphenyl)ethyl]pyridin-2(1H)-one] | 52 nM
7 | O=c1[nH]cc(SCc2ccc(F)cc2)cc1O [Example 11, 5-[(4-Fluorobenzyl)sulfanyl]-3-hydroxypyridin-2(1H)-one] | 47 nM
8 | CC(Sc1c[nH]c(=O)c(O)c1)c1ccccc1 (centres unmarked) [Example 6, 3-Hydroxy-5-[(1-phenylethyl)sulfanyl]pyridin-2(1H)-one] | 1300 nM
9 | O=c1[nH]cc(SCc2ccccc2)cc1O [Example 1, 5-(Benzylsulfanyl)-3-hydroxypyridin-2(1H)-one] | 190 nM
10 | O=c1[nH]cc(SCc2cccc(F)c2)cc1O [Example 34, 5-[(3-Fluorobenzyl)sulfanyl]-3-hydroxypyridin-2(1H)-one] | 130 nM
11 | O=c1[nH]cc(SCc2ccccc2Cl)cc1O [Example 7, 5-[(2-Chlorobenzyl)sulfanyl]-3-hydroxypyridin-2(1H)-one] | 210 nM
12 | O=c1[nH]cc(CCc2ccccc2F)cc1O [Example 32, 5-[2-(2-Fluorophenyl)ethyl]-3-hydroxypyridin-2(1H)-one] | 170 nM
13 | O=c1[nH]cc(CCc2cccc(F)c2)cc1O [Example 31, 5-[2-(3-Fluorophenyl)ethyl]-3-hydroxypyridin-2(1H)-one] | 130 nM
14 | O=c1[nH]cc(SCc2cnccn2)cc1O [Example 24, 3-Hydroxy-5-[(pyrazin-2-ylmethyl)sulfanyl]pyridin-2(1H)-one] | 1000 nM
15 | O=c1[nH]c(SCc2ccccc2)ccc1O [Example 35, 6-(benzylsulfanyl)-3-hydroxypyridin-2(1H)-one] | 1400 nM
16 | O=c1[nH]cc(CCc2ccccc2)cc1O [Example 27, 3-Hydroxy-5-(2-phenylethyl)pyridin-2(1H)-one] | 140 nM
17 | O=c1[nH]cc(SCc2ccc(F)c(F)c2)cc1O [Example 20, 5-[(3,4-Difluorobenzyl)sulfanyl]-3-hydroxypyridin-2(1H)-one] | 45 nM
18 | Cc1ccccc1CCc1c[nH]c(=O)c(O)c1 [Example 26, 3-Hydroxy-5-(2-methylphenethyl)pyridin-2(1H)-one] | 350 nM
19 | O=c1[nH]cc(SCc2cc(F)cc(Cl)c2)cc1O [Example 10, 5-[(3-Chloro-5-fluorobenzyl)sulfanyl]-3-hydroxypyridin-2(1H)-one] | 230 nM

The remaining lines, values ahead:

Row | IC50 | Compound
20 | 490 nM | Cc1ccc(CSc2c[nH]c(=O)c(O)c2)nc1 [Example 23, 3-Hydroxy-5-{[(5-methylpyridin-2-yl)methyl]sulfanyl}pyridin-2(1H)-one]
21 | 79 nM | CCc1ccc(CSc2c[nH]c(=O)c(O)c2)cc1 [Example 12, 5-[(4-Ethylbenzyl)sulfanyl]-3-hydroxypyridin-2(1H)-one]
22 | 240 nM | Cc1cccc(CSc2c[nH]c(=O)c(O)c2)c1 [Example 4, 3-Hydroxy-5-[(3-methylbenzyl)sulfanyl]pyridin-2(1H)-one]
23 | 460 nM | O=c1[nH]cc(SCc2ccccn2)cc1O [Example 17, 3-Hydroxy-5-[(pyridin-2-ylmethyl)sulfanyl]pyridin-2(1H)-one]
24 | 390 nM | Cc1ccccc1CSc1c[nH]c(=O)c(O)c1 [Example 9, 3-Hydroxy-5-[(2-methylbenzyl)sulfanyl]pyridin-2(1H)-one]
25 | 29 nM | Cc1ccc(CSc2c[nH]c(=O)c(O)c2)cc1 [Example 3, 3-Hydroxy-5-[(4-methylbenzyl)sulfanyl]pyridin-2(1H)-one]
26 | 130 nM | COc1ccc(CSc2c[nH]c(=O)c(O)c2)cc1 [Example 21, 3-Hydroxy-5-[(4-methoxybenzyl)sulfanyl]pyridin-2(1H)-one]
27 | 1900 nM | Cc1cccnc1CSc1c[nH]c(=O)c(O)c1 [Example 14, 3-Hydroxy-5-{[(3-methylpyridin-2-yl)methyl]sulfanyl}pyridin-2(1H)-one]
28 | 360 nM | O=c1[nH]cc(SCc2ccc(Cl)cn2)cc1O [Example 19, 5-{[(5-Chloropyridin-2-yl)methyl]sulfanyl}-3-hydroxypyridin-2(1H)-one]
29 | 1900 nM | Cc1noc(C)c1CSc1c[nH]c(=O)c(O)c1 [Example 15, 5-{[(3,5-Dimethyl-1,2-oxazol-4-yl)methyl]sulfanyl}-3-hydroxypyridin-2(1H)-one]
30 | 1400 nM | Cc1nc(CSc2c[nH]c(=O)c(O)c2)co1 [Example 16, 3-Hydroxy-5-{[(2-methyl-1,3-oxazol-4-yl)methyl]sulfanyl}-pyridin-2(1H)-one]
31 | 55 nM | O=c1[nH]cc(SCc2cccc(Cl)c2)cc1O [Example 5, 5-[(3-Chlorobenzyl)sulfanyl]-3-hydroxypyridin-2(1H)-one]
32 | 250 nM | O=c1[nH]cc(SCc2cccnc2)cc1O [Example 22, 3-Hydroxy-5-[(pyridin-3-ylmethyl)sulfanyl]pyridin-2(1H)-one]
33 | 35 nM | O=c1[nH]cc(SCc2ccc(Cl)cc2)cc1O [Example 2, 5-[(4-Chlorobenzyl)sulfanyl]-3-hydroxypyridin-2(1H)-one]
34 | 100 nM | O=c1[nH]cc(SCc2ccncc2)cc1O [Example 18, 3-Hydroxy-5-[(pyridin-4-ylmethyl)sulfanyl]pyridin-2(1H)-one]
35 | 83 nM | COc1ccc(CSc2c[nH]c(=O)c(O)c2)cn1 [Example 25, 3-Hydroxy-5-{[(6-methoxypyridin-3-yl)methyl]-sulfanyl}-pyridin-2(1H)-one]
